Patent publication US12459951B2, “Compounds that interact with RAS superfamily proteins for treatment of cancers, inflammatory diseases, rasopathies, and fibrotic disease” (SHY Therapeutics, LLC, priority 2022, dated 2025)

Experiments:
[1] = target: T1, Rho-A (Homo sapiens, UniProt P61586); test: Ras GTP Binding Domain Inhibition Assay (Ras Superfamily Assay); settings: read-out: Rho-A: % inh..
T1 construct: made in house
Method in brief: (§1)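 His-tagged GTPases immobilised on nickel-coated plates, pre-incubated with compound (20 μM single point, or serial dilution for IC50) 3 h at room temperature, with or without 10-30 μg/mL Sos (residues 556-1049) in the final hour. Bound Cy3- or Cy5-GTP (100 nM, 45 min) measured by fluorescence after washing.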

[2] = test system: KRas G12C mutant; test: as above; settings: 20 μM compound; for KRas G12C mutant + SOS: % inh.: with SOS; for KRas G12C mutant: % inh.: without SOS
Method in brief: as §1

[3] = test system: KRas Q61H mutant; test: as above; settings: 20 μM compound; for KRas Q61H mutant + SOS: % inh.: with SOS; for KRas Q61H mutant: % inh.: without SOS
Method in brief: as §1

[4] = target: T2, Rheb (Homo sapiens, UniProt Q15382); test: Rheb GTP Binding Domain Inhibition Assay; settings: read-out: Rheb: % inh.
T2 construct: made in house
Protocol: (§2) Protocol for Cdc42 and Rheb GTP Binding Domain Inhibition Assay
(§3) The following method was developed as specific assay for cdc42 and Rheb proteins.
(§4) • 25 mM Tris-HCl, pH 7.4 • 27 mM KCl • 137 mM NaCl • 1 mM MgCl2 • 1 mM DTT Buffer-II: • 50 mM Tris-HCl, pH 7.0 • 1 mM MgCl2 • 1 mM DTT
(§5) The small GTPases proteins cdc42 and Rheb were expressed as His-tagged proteins. For the assay, the cdc42 and Rheb purified small GTPases proteins were diluted in Buffer-I or Buffer-II to a final concentration of 10-30 μg/mL. 200 μL of each diluted protein was added to a nickel-coated 96-well plate and incubated overnight at […]. Then the protein solution was discarded and 200 μL of Buffer-I or Buffer-II was added to each well in the presence of 1% DMSO. Compounds to be tested were added to the protein-coated wells at final concentration of 20 μM, and incubated for 3 hours at room temperature with and without 10-30 μg/mL of Sos added to the final hour of the incubation. When performing IC50 measurements a serial dilution of all tested concentrations was added. Then Cy3-GTP or Cy5-GTP was added to each well to a final concentration of 100 nM. The labeled GTP was incubated for 45 minutes at room temperature. Following GTP incubation, wells were washed 3× in Buffer-I or Buffer-II and 200 μL of Buffer-I or Buffer-II was added to each well. Following washes, the amount of bound labeled-GTP was measured using a SpectraMax M3 (Molecular Devices).

[5] = target: T3, cdc42 (Homo sapiens, UniProt P60953); test: Cdc42 GTP Binding Domain Inhibition Assay; settings: read-out: Cdc42: % inh.
T3 construct: made in house
Protocol: as §2, §3, §4, §5

T2 sequence (Q15382 whole entry, the tested form may be a part): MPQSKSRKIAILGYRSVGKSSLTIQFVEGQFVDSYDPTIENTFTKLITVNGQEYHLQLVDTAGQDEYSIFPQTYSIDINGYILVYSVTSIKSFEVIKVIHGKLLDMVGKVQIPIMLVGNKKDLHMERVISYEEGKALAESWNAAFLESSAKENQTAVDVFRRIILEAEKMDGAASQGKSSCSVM
T1 sequence (P61586 whole entry, the tested form may be a part): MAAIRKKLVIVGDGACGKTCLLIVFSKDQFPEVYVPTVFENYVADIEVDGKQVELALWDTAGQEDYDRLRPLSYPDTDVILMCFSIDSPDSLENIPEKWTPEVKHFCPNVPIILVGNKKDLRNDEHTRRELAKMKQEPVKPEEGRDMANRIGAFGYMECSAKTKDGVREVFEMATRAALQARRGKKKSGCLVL
T3 sequence (P60953 whole entry, the tested form may be a part): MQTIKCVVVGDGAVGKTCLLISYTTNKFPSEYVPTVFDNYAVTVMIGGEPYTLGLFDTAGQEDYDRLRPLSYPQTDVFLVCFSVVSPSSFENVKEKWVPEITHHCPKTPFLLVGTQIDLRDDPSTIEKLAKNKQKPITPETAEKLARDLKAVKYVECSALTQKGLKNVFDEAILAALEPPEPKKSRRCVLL

## CO[C@H]1CC[C@@H](Nc2nc(-c3ccccn3)nn3cc(-c4ccn(C(C)C)n4)c(C)c23)C1 (racemic) [Compound 9, rac 6-(1-Isopropyl-1H-pyrazol-3-yl)-N-((1R,3S)-3-methoxycyclopentyl)-5-methyl-2-(pyridin-2-yl)pyrrolo[2,1-f][1,2,4]triazin-4-amine]
[1]
  inhibition at 20 µM: 0%
[2]
  KRas G12C mutant + SOS: % inh.: 0 (0 = 0% inhibition)
  KRas G12C mutant: % inh.: B (B = 26-49% inhibition)
[3]
  KRas Q61H mutant + SOS: % inh.: 0 (0 = 0% inhibition)
  KRas Q61H mutant: % inh.: A (A = 1-25% inhibition)

## COc1cc(Nc2nc(-c3nccn3C)nn3cc(-c4ccn(C(C)C)n4)c(C)c23)ncn1 [Compound 6, 6-(1-Isopropyl-1H-pyrazol-3-yl)-N-(6-methoxypyrimidin-4-yl)-5-methyl-2-(1-methyl-1H-imidazol-2-yl)pyrrolo[2,1-f][1,2,4]triazin-4-amine]
[4]
  inhibition at 20 µM: 76 to 100%
[5]
  inhibition at 20 µM: 50 to 75%
[1]
  inhibition at 20 µM: 76 to 100%
[2]
  KRas G12C mutant + SOS: % inh.: C (C = 50-75% inhibition)
  KRas G12C mutant: % inh.: C (C = 50-75% inhibition)
[3]
  KRas Q61H mutant + SOS: % inh.: C (C = 50-75% inhibition)
  KRas Q61H mutant: % inh.: C (C = 50-75% inhibition)

## Cc1c(-c2ccn(C(C)C)n2)cn2nc(-c3ccccn3)nc(O)c12 [Compound 8, 6-(1-Isopropyl-1H-pyrazol-3-yl)-5-methyl-2-(pyridin-2-yl)pyrrolo[2,1-f][1,2,4]triazin-4-ol]
[1]
  inhibition at 20 µM: 0%
[2]
  KRas G12C mutant + SOS: % inh.: A (A = 1-25% inhibition)
  KRas G12C mutant: % inh.: 0 (0 = 0% inhibition)
[3]
  KRas Q61H mutant + SOS: % inh.: 0 (0 = 0% inhibition)
  KRas Q61H mutant: % inh.: 0 (0 = 0% inhibition)

## Cc1c(-c2ccn(C(C)C)n2)cn2nc(-c3nccn3C)nc(Nc3nccn3C)c12 [Compound 93, 6-(1-Isopropyl-1H-pyrazol-3-yl)-5-methyl-N,2-bis(1-methyl-1H-imidazol-2-yl)pyrrolo[2,1-f][1,2,4]triazin-4-amine]
[4]
  inhibition at 20 µM: 76 to 100%
[5]
  inhibition at 20 µM: 76 to 100%
[1]
  inhibition at 20 µM: 76 to 100%
[2]
  KRas G12C mutant + SOS: % inh.: C (C = 50-75% inhibition)
  KRas G12C mutant: % inh.: D (D = 76-100% inhibition)
[3]
  KRas Q61H mutant + SOS: % inh.: D (D = 76-100% inhibition)
  KRas Q61H mutant: % inh.: C (C = 50-75% inhibition)

## COc1cc(Nc2nc(-c3nccn3C)nn3cc(-c4ccccn4)c(C)c23)ncn1 [Compound 94, N-(6-Methoxypyrimidin-4-yl)-5-methyl-2-(1-methyl-1H-imidazol-2-yl)-6-(pyridin-2-yl)pyrrolo[2,1-f][1,2,4]triazin-4-amine]
[4]
  inhibition at 20 µM: 26 to 49%
[5]
  inhibition at 20 µM: 26 to 49%
[1]
  inhibition at 20 µM: 76 to 100%
[2]
  KRas G12C mutant + SOS: % inh.: B (B = 26-49% inhibition)
  KRas G12C mutant: % inh.: B (B = 26-49% inhibition)
[3]
  KRas Q61H mutant + SOS: % inh.: C (C = 50-75% inhibition)
  KRas Q61H mutant: % inh.: B (B = 26-49% inhibition)

## COc1ccnc(Nc2nc(-c3nccn3C)nn3cc(-c4ccn(C(F)F)n4)c(C)c23)n1 [Compound 95, 6-(1-(Difluoromethyl)-1H-pyrazol-3-yl)-N-(4-methoxypyrimidin-2-yl)-5-methyl-2-(1-methyl-1H-imidazol-2-yl)pyrrolo[2,1-f][1,2,4]triazin-4-amine]
[4]
  inhibition at 20 µM: 50 to 75%
[5]
  inhibition at 20 µM: 50 to 75%
[1]
  inhibition at 20 µM: 76 to 100%
[2]
  KRas G12C mutant + SOS: % inh.: B (B = 26-49% inhibition)
  KRas G12C mutant: % inh.: B (B = 26-49% inhibition)
[3]
  KRas Q61H mutant + SOS: % inh.: C (C = 50-75% inhibition)
  KRas Q61H mutant: % inh.: C (C = 50-75% inhibition)

## Cc1c(-c2ccn(C)n2)cn2nc(-c3nccn3C)nc(Cl)c12 [Compound 99, 4-Chloro-5-methyl-2-(1-methyl-1H-imidazol-2-yl)-6-(1-methyl-1H-pyrazol-3-yl)pyrrolo[2,1-f][1,2,4]triazine]
[2]
  KRas G12C mutant + SOS: % inh.: B (B = 26-49% inhibition)
  KRas G12C mutant: % inh.: B (B = 26-49% inhibition)
